Measured values published in patent publication US8476449B2, “Radioactive iodine labeled organic compound or salt thereof” (Nihon Medi-Physics Co., Ltd., priority 2010, dated 2013).

How the values were obtained:
Aβ42 aggregate = target: T1, Aβ42 aggregate (Homo sapiens, UniProt P05067); assay: Inhibition constant toward Aβ42 aggregate (thioflavin S competition); assay type: binding; details: thioflavin S as ligand, read-out: Ki values (Aβ42 in Table 5)
T1 construct: Aβ (1-42) peptide; purchased Peptide Institute, Inc
T1 sequence (P05067 672-713 limits assumed): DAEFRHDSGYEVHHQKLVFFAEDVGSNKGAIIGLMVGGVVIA
Procedure: (§1) First, the dissociation constant (Kd) of thioflavin S used as a competitive ligand was first determined by a saturation experiment in order to calculate inhibition constants of compounds 1 to 3. That is, a mixed solution of a 10 vol % ethanol aqueous solution of thioflavin S (0.1-12.8 μmol/L) and the tau protein aggregate (final concentration 0.2 μmol/L, prepared in Example 9) or the Aβ42 aggregate (final concentration 2.2 μmol/L, prepared in Example 11) was incubated for 30 minutes, and the fluorescence intensity was measured using a fluorescence plate reader (FLEX STATION, Molecular Devices). The fluorescence intensity was measured at Ex 440 nm and Em 510 nm for the tau protein aggregate and Ex 440 nm and Em 490 nm for the Aβ42 aggregate. A saturation curve was prepared using GraphPad Prism, and the Kd value for thioflavin S was calculated.
(§2) Next, a mixed solution of a 10 volt ethanol aqueous solution of thioflavin S (1.5 μmol/L) and a test compound (0.6 nmol/L to 10 μmol/L) together with the tau protein aggregate (final concentration 0.2 μmol/L, prepared in Example 9) or the Aβ42 aggregate (final concentration 10 μg/ml, prepared in Example 11) was incubated for 30 minutes. Then, the fluorescence intensities at Ex 440 nm and Em 510 nm for the tau protein aggregate and Ex 440 nm and Em 490 nm for the Aβ42 aggregate were measured using a fluorescence plate reader (FLEX STATION, Molecular Devices). GraphPad Prism inhibition curves were prepared, and Ki values of compounds 1 to 3 were determined using the above obtained Kd value of thioflavin S.

tau protein aggregate [1] = target: T2, tau protein aggregate (Homo sapiens, UniProt P10636); assay: Inhibition constant toward tau protein aggregate (thioflavin S competition); assay type: binding; design: made in house; host or cells: E. coli BL21
T2 sequence (P10636 1-441 isoform P10636-8): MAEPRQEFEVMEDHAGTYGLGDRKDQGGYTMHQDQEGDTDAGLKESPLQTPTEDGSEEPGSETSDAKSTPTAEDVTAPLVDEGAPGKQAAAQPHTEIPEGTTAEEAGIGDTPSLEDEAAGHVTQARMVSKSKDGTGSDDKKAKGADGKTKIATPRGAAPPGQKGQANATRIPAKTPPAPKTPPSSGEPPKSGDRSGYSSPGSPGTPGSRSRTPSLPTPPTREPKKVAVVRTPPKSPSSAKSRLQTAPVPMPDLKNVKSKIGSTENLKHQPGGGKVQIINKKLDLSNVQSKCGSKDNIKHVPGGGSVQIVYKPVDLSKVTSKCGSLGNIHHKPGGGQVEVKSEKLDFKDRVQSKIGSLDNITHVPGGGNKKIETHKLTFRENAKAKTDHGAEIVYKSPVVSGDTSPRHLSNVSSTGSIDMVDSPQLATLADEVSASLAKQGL
Procedure: as §1, §2

tau protein aggregate [2] = target: T2, tau protein aggregate; assay: Competitive inhibition experiment using thioflavin S (ThS) as ligand, fluorescence spectra; assay type: binding; design: made in house; host or cells: E. coli BL21; details: tau protein aggregate 0.2 μmol/L, thioflavin S 1.5 μmol/L, compound 0.1-2.7 μmol/L, excitation 440 nm
Procedure: Tau-441 expression vector (provided by Graduate School of Medicine, Osaka City University) was transferred to E. coli (BL21), culturing was carried out, and a tau protein was extracted and purified. Heparin (0.1 mg/mL) was added to the purified tau protein (1 mg/mL), and incubation in a 50 mmol/L MES buffer (pH 6.8, 100 mmol/L sodium chloride, 0.5 mmol/L EGTA) at 37° C. was carried out for 3 days, thus preparing an aggregate. Formation of the tau protein aggregate was confirmed by SDS-PAGE and thioflavin S fluorescence assay.
A mixed solution (550 μL) of the tau protein aggregate (final concentration […]) thus prepared, thioflavin S (Sigma Aldrich, final concentration 1.5 μmol/L), and compound 1, compound 2, or compound 3 solution at various concentrations (each having final concentrations of 0 to 2.7 μmol/L) was incubated for 30 minutes, and fluorescence spectra at an excitation wavelength of 440 nm were measured using a fluorescence spectrometer (RF-5300PC, Shimadzu Corporation).
In FIGS. 3 to 5, a is a fluorescence spectrum of a sample (sample I) containing only thioflavin S at 1.5 μmol/L, and b is a fluorescence spectrum of a sample (sample II) that is 0.2 μmol/L of the tau protein aggregate in sample I. In FIG. 3, c is a fluorescence spectrum of a sample that is 0.1 μmol/L of compound 1 in sample II, d is a fluorescence spectrum of a sample that is 0.3 μmol/L of compound 1 in sample II, e is a fluorescence spectrum of a sample that is 0.9 μmol/L of compound 1 in sample II, and f is a fluorescence spectrum of a sample that is 2.7 μmol/L of compound 1 in sample II. In FIG. 4, c is a fluorescence spectrum of a sample that is 0.1 μmol/L of compound 2 in sample II, d is a fluorescence spectrum of a sample that is 0.3 μmol/L of compound 2 in sample II, e is a fluorescence spectrum of a sample that is 0.9 μmol/L of compound 2 in sample II, and f is a fluorescence spectrum of a sample that is 2.7 μmol/L of compound 2 in sample II. […]

[3] = system: human brain neurofibrillary tangles; assay: Fluorescent staining of Alzheimer's disease patient brain slice (binding to human brain neurofibrillary tangles); details: 200 μmol/L, 1 hour
Procedure: A fluorescent staining experiment with compound 3 using an Alzheimer's disease patient brain slice was carried out in order to evaluate binding to human brain neurofibrillary tangles. A postmortem brain slice (paraffin-embedded slice) of an Alzheimer's disease patient purchased from BioChain was washed with xylene (5 minutes×twice), ethanol, ethanol, a 95 vol % ethanol aqueous solution, an 85 volt ethanol aqueous solution, and a 70 vol % ethanol aqueous solution (1 minute×once) to thus carry out deparaffinization. Subsequently, it was treated in sequence with a 0.3 wt % potassium permanganate aqueous solution (20 minutes×once), PBS (phosphoric acid buffer physiological saline) (2 minutes×twice), a 1 wt % potassium metabisulfite aqueous solution/1 wt % oxalic acid aqueous solution (1 minute×once), PBS (2 minutes×twice), a 1 wt % sodium borohydride aqueous solution (5 minutes×once), and PBS (2 minutes×twice) in order to remove self-fluorescence of the slice. Blocking using 3 wt % BSA-containing PBS/0.1 wt % tritonX100-containing PBS was carried out for 3 hours. Then, a test compound (200 μmol/L/50 vol % ethanol aqueous solution) and the slice were incubated for 1 hour. The slice was washed with 50 vol % ethanol, and examined using a fluorescence microscope. Furthermore, the same slice was stained using thioflavin S (0.125 wt %, 50 vol % ethanol aqueous solution) for 10 minutes. […]

- Ki (Aβ42 aggregate): 469 nM
- Ki ratios of Aβ42/Tau (tau protein aggregate [1]; ratio of Ki Aβ42 aggregate to Ki tau protein aggregate): 7.33
- Ki (tau protein aggregate [1]; thioflavin S as ligand, tau protein aggregate, read-out: Ki values (Tau in Table 5)): 64 nM
- Fluorescent staining of brain slice vs AT8 immunostaining [3]: Prominent fluorescence accumulation
SMILES: O=C1/C(=C/c2ccc(-c3cccc(I)c3)o2)NC(=S)N1CCc1c[nH]cn1 [Compound 3, (Z)-3-(2-(1H-imidazol-4-yl)ethyl)-5-((5-(3-iodophenyl)furan-2-yl)methylene)-2-thioxoimidazolidin-4-one]
- Inhibition of binding of tau protein aggregate to thioflavin S (fluorescence spectra) (tau protein aggregate [2]): inhibition of binding of a tau protein aggregate to thioflavin S
